We go through one compound from patent US6476017B2, “Compounds activating pharmacological effect of retinoids” (Institute of Medicinal Molecular Design, Inc., priority 1995, dated 2002).

The structures appear in SMILES notation.

The subject of the experiment is promyelocytic leukemia cell strain HL-60. The experiment can be described thus: Cell differentiation inducing activity of retinoids on HL-60 in presence/absence of test compound (NBT reduction). The experiment is classed as cell-based. The procedure:
The effects of the compounds of the above Examples 1 and 2 on cell differentiation induced by retinoids were studied. As retinoid compounds (i.e., agonists against the all-trans retinoic acid receptor), retinoic acid and Am80 (4-[(5,6,7,8-tetrahydro-5,5,8,8-tetramethyl-2-naphthalenyl)carbamoyl]benzoic acid) were used. Cell differentiation inducing activities of the above retinoids on promyelocytic leukemia cell strain HL-60 were measured in the presence and absence of the compounds of Examples 1 and 2 according to the method described in the Japanese Patent Unexamined Publication (KOKAI) No.(Sho)61-76440/1986. The degrees of the differentiation into granulocytic cell were determined by observing nuclear morphologies and measuring abilities to reduce nitroblue tetrazolium (NBT). This method is well known in the art as a test that enables accurate evaluation of the cell differentiation inducing activity of retinoids. The results are shown in the Table 2 set out below (in the table, NTB positive ratio represents a percent value of differentiated cells based on living cells).
Effect of the compound of Example 10 (HX801) on the cell differentiation inducing activity by a retinoid was examined. Am80 was used as the retinoid compound and the cell differentiation inducing activity of the above retinoid on promyelocytic leukemia cell strain HL-60 was determined in the presence or absence of the compound of HX801 in the same manner as Example 15. The results are shown in the Table 3 set out below (in the table, the symbol “-” indicates no addition).

`CC1(C)CCC(C)(C)c2cc(NC(=O)c3ccc(C(=O)O)cc3)ccc21` [Am80, 4-[(5,6,7,8-tetrahydro-5,5,8,8-tetramethyl-2-naphthalenyl)carbamoyl]benzoic acid, reference compound]: the NBT positive ratio worked out at 55% (Am80 1.0 × 10^−8 M alone, test compound absent (HX600 series)); 55% (Am80 1.0 × 10^−8 M alone, test compound absent (LE135 series)); 44% (Am80 1.1 × 10^−9 M alone, test compound absent (HX600 series)); 35% (Am80 1.1 × 10^−9 M alone, test compound absent (LE135 series)); 53% (Am80 3.3 × 10^−9 M alone, test compound absent (HX600 series)); 51% (Am80 3.3 × 10^−9 M alone, test compound absent (LE135 series)). Besides, the NBT positive ratio was determined as 15% (Am80 3.7 × 10^−10 M alone, test compound absent (HX600 series)); 21% (Am80 3.7 × 10^−10 M alone, test compound absent (LE135 series)); 48% (Table 3: Am80 1.0 × 10^−9 M alone, no HX801); 5% (Table 3: Am80 1.1 × 10^−10 M alone, no HX801); 0.6% (Table 3: Am80 1.2 × 10^−11 M alone, no HX801); 30% (Table 3: Am80 3.3 × 10^−10 M alone, no HX801). The “NBT positive ratio” value (Table 3: Am80 3.7 × 10^−11 M alone, no HX801) amounted to 3%.
